Source: patent US7115718B2, “Haptens, immunogens, antibodies and conjugates to 2-oxo-3-hydroxy-LSD” (Randox :abpratproes :o, oted, priority 2001, dated 2006)

What was measured:
[1] = test system: antiserum raised to immunogen A (hapten A-BSA); assay: Competitive ELISA microtiter plate assay for 2-oxo-3-hydroxy-LSD, cross-reactivity with LSD and its metabolites; format: binding, sheep; details: for % CR, percentage cross-reactivity based on specificity to 2-oxo-3-hydroxy LSD: % CR = IC50 2-oxo / IC50 LSD x 100; for % B/B0: B0 = absorbance at 0 ng/ml; for A450: absorbance at 450 nm, conjugate A (hapten A-HRP)
Protocol: An aqueous solution of the immunogen prepared in Example 5 was formulated with Freund's Complete Adjuvant (FCA) to form an emulsion consisting of 4 mg/ml inmmunogen in 50% (v/v) FCA. Three sheep were immunized with this emulsion (1° immunisation), 0.25 ml being subcutaneously -injected at each of four sites in the flank of each animal. The next immunisation (Boost 1) contained 2 mg/ml immunogen and subsequent immunizations (boosts 2 to 25) contained 1 mg/ml. All boosts were emulsified in 50% (v/v) Freund's Incomplete Adjuvant (FIA) and administered in the same manner as the 1° immunisation at monthly intervals for 1 year. Blood sampling took place 7 to 14 days after each boost. Each sample was processed to produce antiserum, which was further purified by caprylic acid and ammonium sulfate precipitation to yield an immunoglobulin G (IgG) fraction. The IgG fraction was evaluated by competitive ELISA microtitre plate assay, as described in Example 14 below.
The wells of an enhanced binding 96 well polystyrene ricrotiter plate were coated with the IgG fraction of the antiserum raised to immunogen A (Example 5) of the present invention, diluted in 10 mM Tris, pH8.5 (125 μl/well). The appropriate antibody coating dilution was determined using standard ELISA chequerboard techniques. The plate was incubated for 2 hours at 37° C., washed 4 times with Tris buffered saline containing Tween 20 (TBST) and tapped dry. Standard solutions of 2-oxo-3-hydroxy-LSD were prepared in TBST at 0, 10, 50, 100, 250, 500, 1000 and 2000 ng/ml and 50 μl of each was added to the appropriate wells (FIG. 4). The conjugate (detection reagent) of the present invention was diluted in Tris buffer (pH7.2) containing EDTA, D-mannitol, sucrose, thimerosal and BSA, the appropriate dilution being determined by standard ELISA chequerboard techniques, and 75 μl was added to the appropriate wells (FIG. 4). The plate was incubated at 37° C. for 2 hours. Excess unbound conjugate was removed by washing 6 times over a 10 minute period with TBST.
125 μl of tetramethylbenzidine (TMB) substrate solution was added to each well of the plate, which was then incubated for 15 to 20 minutes in the dark at room temperature. The reaction was terminated by addition of 125 μl 0.2M H2SO4 to each well. The absorbance was then measured at 450 nm using a microtiter plate reader.
Standard solutions of LSD and its metabolites were prepared in TBST at 0, 10.0, 50.0, 100.0, 250.0, 500.0, 1000 and 2000 ng/ml. Employing each series of standards in the present competitive ELISA, calibration curves were generated and these were used to determine the cross-reactivity of the immunoassays with LSD and its metabolites, cross-reactivity being calculated according to the following formula: % CR=IC502-oxo/IC50LSD×100 where % CR is the percentage cross-reactivity, IC502-oxo is the concentration of 2-oxo-3-hydroxy-LSD that causes 50% displacement of signal and IC50LSD is the concentration of LSD or LSD metabolite that causes 50% displacement of signal.

[2] = test system: antibodies obtained in EP 1 148 339 A2; details: when compared to 2-oxo-3-hydroxy-LSD; cited from earlier work
[3] = test system: antibodies generated to immunogen 4; details: cited from earlier work
[4] = test system: antibodies generated to immunogen 8; details: cited from earlier work
[5] = in vivo; cited from earlier work
[6] = in vivo; cited from earlier work; remark: listed apart in the source
[7] = test system: antibodies of U.S. Pat. No. 6,207,396 B1; details: antibodies specific to d-LSD; cited from earlier work
[8] = human urine; cited from earlier work

SMILES | specificity / cross-reactivity of the assay, in words [1] | % CR, percentage cross-reactivity based on specificity to 2-oxo-3-hydroxy LSD [1] [%] | % B/B0 ([1]; standard 10 ng/ml) [%] | A450 ([1]; standard 10 ng/ml) | % B/B0 ([1]; standard 50 ng/ml) [%] | A450 ([1]; standard 50 ng/ml) | % B/B0 ([1]; standard 100 ng/ml) [%] | A450 ([1]; standard 100 ng/ml) | % B/B0 ([1]; standard 250 ng/ml) [%] | A450 ([1]; standard 250 ng/ml) | % B/B0 ([1]; standard 500 ng/ml) [%] | A450 ([1]; standard 500 ng/ml) | % B/B0 ([1]; standard 1000 ng/ml) [%] | A450 ([1]; standard 1000 ng/ml) | % B/B0 ([1]; standard 2000 ng/ml) [%] | A450 ([1]; standard 2000 ng/ml) | cross-reactivity [2] | cross-reactivity [3] [%] | cross-reactivity [4] [%] | cross-reactivity [7] [%] | also measured
CCN(CC)C(=O)[C@@H]1C=C2c3cccc4[nH]cc(c34)C[C@H]2N(C)C1 [LSD, Lysergic acid diethylamide] | very low levels of cross-reactivity | <5 | 99.28 | 1.792 | 98.45 | 1.777 | 98.34 | 1.775 | 96.40 | 1.740 | 91.58 | 1.653 | 87.09 | 1.572 | 80.50 | 1.453 | 74.9–84.4% | 100 | 100 | – | potency as hallucinogen relative to mescaline [5]: 4500–9275 times; potency as hallucinogen relative to psilocybin [5]: 10–150 times; excreted unchanged in urine [6]: less than 1%
CCN(CC)C(=O)[C@H]1C=C2c3cccc4[nH]cc(c34)C[C@H]2N(C)C1 [d-iso-LSD] | – | – | – | – | – | – | – | – | – | – | – | – | – | – | – | – | – | – | – | 0.04 | hallucinogenic activity, in words [5]: inactive
CCN(CC)C(=O)[C@@H]1C=C2c3cccc4[nH]cc(c34)C[C@H]2NC1 [Nor LSD, nor-LSD] | very low levels of cross-reactivity | <5 | 99.0 | 1.772 | 98.7 | 1.767 | 98.5 | 1.763 | 97.1 | 1.738 | 94.2 | 1.686 | 91.5 | 1.638 | 86.7 | 1.552 | 1.8–4.6% | 20 | 40 | – | –
CCN(CC)C(=O)[C@@H]1C=C2c3cccc4c3C(O)(C[C@H]2N(C)C1)C(=O)N4 (stereo partly drawn) [2-Oxo-3-Hydroxy-LSD, 2-oxo-3-hydroxy-LSD] | highly specific | 100 | 78.47 | 1.396 | 59.36 | 1.056 | 50.08 | 0.891 | 37.10 | 0.660 | 28.89 | 0.514 | 21.98 | 0.391 | 17.88 | 0.318 | – | 50 | < 20 | 1.82 | average concentration relative to that of LSD [8]: 20 times
